Like-named read-outs stand apart in the source and are kept apart here.
Tests used:
SF3b complexes = target: T1, SF3b complexes (Homo sapiens, UniProt O75533+Q7RTV0); assay: Scintillation proximity assay (SPA) with [3H]-labelled pladienolide probe; format: binding; conditions: SF3B1 (WT); geometric mean; read-out: SPA-ATS GMean IC50 (nM) SF3B1 (WT)
T1 construct: endogenous in cells; host or cells: Nuclear extracts; A HeLa S3 extract preparation is described for the in vitro splicing assay
How it was run: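 SF3b complexes captured from nuclear extracts on anti-SF3B1 antibody SPA beads; test compounds pre-incubated 30 min before 2.5 nM [3H]-pladienolide probe added, then 30 min incubation. Bound probe read by scintillation; values from non-linear regression of concentration–response curves.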

[1] = tested on: Ad2 variant pre-mRNAs spliced in HeLa S3 nuclear extracts; assay: In vitro splicing assay (IVS), RT-qPCR of spliced product; format: biochemical; conditions: for IC50: geometric mean; for Ratio Ad2.1/2.2: ratio of IVS IC50 Ad2.1 to Ad2.2
How it was run: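 Read-out is one-step TaqMan RT-qPCR of spliced Ad2 mRNA with Ftz as reference, normalized to DMSO and fit by non-linear regression. Reactions held HeLa S3 nuclear extract, 2 ng Ad2-derived pre-mRNA and test compound, with 15 min preincubation. Splicing was started with ATP-containing activation buffer and run 90 min at 30 °C.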

[2] = tested on: NCI-H1568 cells (high MCL1); assay: Cell proliferation and viability, CellTiter-Glo, 72 hours; format: cell-based; conditions: for GI50: geometric mean
How it was run: (§1)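 RPMI-1640/10% FBS (Panc: + insulin, FBS 15%); 11-pt half-log dose, ~10 μM-100 pM, 0.1% DMSO; 37° C, 5% CO2; ATP luminescence read; % inhibition vs T0 and vehicle, −100% cidal to 100% uninhibited growth.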

[3] = tested on: Panc 05.04 cells (SF3b K700E mutant); assay: as above; format: cell-based; conditions: for GI50: geometric mean
How it was run: as §1

[4] = Ad2.1 pre-mRNA substrate, read-out: qPCR-IVS-ATS GMean IC50 (nM) Ad2.1
[5] = Ad2.2 pre-mRNA substrate, read-out: qPCR-IVS-ATS GMean IC50 (nM) Ad2.2
[6] = 72 h, NCIH1568.1, -100% = cidal, 0% = static, 100% = uninhibited growth
[7] = 72 h, PANC0504.1, -100% = cidal, 0% = static, 100% = uninhibited growth
[8] = NCI-H1568, read-out: CTGlo-ATS GMean GI50 (nM) 72 h NCIH1568.1, NCIH1568.1 cells, 72 h
[9] = NCIH1568.1 cells, 72 h, −100% cidal, 0% static, 100% maximal growth
[10] = PANC0504.1 cells, 72 h, −100% cidal, 0% static, 100% maximal growth
[11] = Panc 05.04, read-out: CTGlo-ATS GMean GI50 (nM) 72 h PANC0504.1, PANC0504.1 cells, 72 h
[12] = NCI-H1568, read-out: CTGlo-ATS GMean GI50 (nM) 72 h NCIH1568.1, 72 h, NCIH1568.1
[13] = Panc 05.04, read-out: CTGlo-ATS GMean GI50 (nM) 72 h PANC0504.1, 72 h, PANC0504.1

SMILES	IC50 (SF3b complexes) [nM]	IC50 [1, 4] [nM]	IC50 [1, 5] [nM]	Ratio Ad2.1/2.2 [1]	CTGlo-ATS Mean MinResponse % 72 h NCIH1568.1 [2, 6] [%]	GI50 ([2]; NCI-H1568, 72 h, read-out: CTGlo-ATS GMean GI50 (nM) 72 h NCIH1568.1, 72 h, NCIH1568.1) [nM]	CTGlo-ATS Mean MinResponse % 72 h PANC0504.1 [3, 7] [%]	GI50 ([3]; Panc 05.04, 72 h, read-out: CTGlo-ATS GMean GI50 (nM) 72 h PANC0504.1, 72 h, PANC0504.1) [nM]	GI50 [2, 8] [nM]	CTGlo-ATS Mean MinResponse % 72 h NCIH1568.1 [2, 9] [%]	CTGlo-ATS Mean MinResponse % 72 h PANC0504.1 [3, 10] [%]	GI50 [3, 11] [nM]	GI50 [2, 12] [nM]	GI50 [3, 13] [nM]	GI50 ([2]; NCI-H1568, 72 h, read-out: CTGlo-ATS GMean GI50 (nM) 72 h NCIH1568.1, NCIH1568.1 cells, 72 h) [nM]	GI50 ([3]; Panc 05.04, 72 h, read-out: CTGlo-ATS GMean GI50 (nM) 72 h PANC0504.1, PANC0504.1 cells, 72 h) [nM]
CCNS(=O)(=O)c1cccc(/C=C(\C)[C@H]2OC(=O)CC(O)CCC(C)[C@@H](OC(=O)N3CCN(C)CC3)/C=C/[C@@H]2C)c1 (stereo in doubt) [Compound 210, [(2S,3S,4E,6R,7R,10S)-2-[(E)-1-[3-(ethylsulfamoyl)phenyl]prop-1-en-2-yl]-10-hydroxy-3,7-dimethyl-12-oxo-1-oxacyclododec-4-en-6-yl] 4-methylpiperazine-1-carboxylate]	4.35	11000	32.7	336.112	−51.154	17	−96.896	27.8								
C/C(=C\c1cc(F)cc(N(C)C2CCOCC2)c1)[C@H]1OC(=O)C[C@H](O)CC[C@H](C)[C@@H](OC(=O)N2CCN(C)CC2)/C=C/[C@@H]1C [Compound 168]	3.05	27.6	16.5						5.96	−75.760	−86.930	10.4				
C/C(=C\c1cc(F)cc(N2CCOCC2)c1)[C@H]1OC(=O)C[C@H](O)CC[C@@](C)(O)[C@@H](OC(=O)N2CCC(N3CCCCC3)CC2)/C=C/[C@@H]1C [Compound 62]	7.86	587	52.9						54.9	−57.446	−94.536	40.5				
C/C(=C\c1cc(F)c2nnn(C3CCOCC3)c2c1)[C@H]1OC(=O)C[C@H](O)CC[C@H](C)[C@@H](OC(=O)N2CCN(C)CC2)/C=C/[C@@H]1C [Compound 140]	1.73	11.6	11.8						1.25	−82.434	−80.398	1.63				
C/C(=C\c1cccc(COC(=O)N2CC[C@@H](F)C2)c1)[C@H]1OC(=O)C[C@H](O)CC[C@H](C)[C@@H](OC(=O)N2CCN(C)CC2)/C=C/[C@@H]1C [Compound 260]	0.196	> 25000	99.4	251.398	−44.621		−47.734						42.3	39.5		
C/C(=C\c1cc(F)cc(N2CCO[C@H](CO)C2)c1)[C@H]1OC(=O)C[C@H](O)CC[C@H](C)[C@@H](OC(=O)N2CCN(C)CC2)/C=C/[C@@H]1C [Compound 76]	4.2	21.5	17.7							−77.948	−90.504				3.02	5.17
C/C(=C\c1cc(F)cc(N2CCN(C(=O)CN3CCOCC3)CC2)c1)[C@H]1OC(=O)C[C@H](O)CC[C@H](C)[C@@H](OC(=O)N2CCN(C)CC2)/C=C/[C@@H]1C [Compound 119]	11.7	31	21.7						8.84	−81.451	−75.344	8.43				
C/C(=C\c1cccc(S(=O)(=O)N2CCCC2C)c1)[C@H]1OC(=O)CC(O)CCC(C)[C@@H](OC(=O)N2CCN(C)CC2)/C=C/[C@@H]1C (stereo in doubt) [Compound 200, [(2S,3S,4E,6R,7R,10S)-10-hydroxy-3,7-dimethyl-2-[(E)-1-[3-[(2S)-2-methylpyrrolidin-1-yl]sulfonylphenyl]prop-1-en-2-yl]-12-oxo-1-oxacyclododec-4-en-6-yl] 4-methylpiperazine-1-carboxylate]	8.03	8050	27	297.600	−51.281		−94.085						24.2	17.4		
C/C(=C\c1cc(F)cc(N2CCN(CCO)CC2)c1)[C@H]1OC(=O)C[C@H](O)CC[C@H](C)[C@@H](OC(=O)N2CCOCC2)/C=C/[C@@H]1C [Compound 53]	14.1	1910	30.5						81.8	−59.250	−92.947	81.1				
C/C(=C\c1cc(F)cc(N2CCN(S(=O)(=O)CCN3CCOCC3)CC2)c1)[C@H]1OC(=O)C[C@H](O)CC[C@H](C)[C@@H](OC(=O)N2CCN(C)CC2)/C=C/[C@@H]1C [Compound 73]	2.42	13.1	13.6						5.85	−76.720	−79.201	6.91				
C/C(=C\c1cccc(S(=O)(=O)N2CCC(F)(F)CC2)c1)[C@H]1OC(=O)C[C@H](O)CC[C@H](C)[C@@H](OC(=O)N2CCN(C)CC2)/C=C/[C@@H]1C [Compound 202, [(2S,3S,4E,6R,7S,10R)-2-[(E)-1-[3-(4,4-difluoropiperidin-1-yl)sulfonylphenyl]prop-1-en-2-yl]-10-hydroxy-3,7-dimethyl-12-oxo-1-oxacyclododec-4-en-6-yl] 4-methylpiperazine-1-carboxylate]	14.1	4470	25.2	177.387	−59.083		−93.824						29.4	24.7		
C/C(=C\c1cccc(S(=O)(=O)NC(C)(C)C)c1)[C@H]1OC(=O)C[C@H](O)CC[C@H](C)[C@@H](OC(=O)N2CCN(C)CC2)/C=C/[C@@H]1C [Compound 208, [(2S,3S,4E,6R,7S,10R)-2-[(E)-1-[3-(tert-butylsulfamoyl)phenyl]prop-1-en-2-yl]-10-hydroxy-3,7-dimethyl-12-oxo-1-oxacyclododec-4-en-6-yl] 4-methylpiperazine-1-carboxylate]	1.77	1380	25.1	54.813	−47.371		−94.342						11.6	9.27		
